ChEMBL document CHEMBL1201862, “PubChem BioAssay data set” (2004)
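48-hour exposure; five concentrations; linearly interpolated endpoints. GI50 = concentration required for 50% inhibition of growth.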 Activity calls are given as the source filed them. No stated cut-off is given here; in the data, active = GI50 up to about 1.1 µM and inactive = higher.

Assays:
Test in all cases: DTP human tumour cell line panel, 48 h
[1] = system: HOP-62
[2] = system: IGROV-1
[3] = system: KM12
[4] = system: HT-29
[5] = system: MOLT-4
[6] = system: HCT-15
[7] = system: 786-0
[8] = system: SK-MEL-28
[9] = system: SF-295
[10] = system: M14
[11] = system: UACC-257
[12] = system: SR
[13] = system: T47D
[14] = system: SK-OV-3
[15] = system: MDA-MB-231
[16] = system: CCRF-CEM
[17] = system: DU-145
[18] = system: SW-620
[19] = system: CAKI-1
[20] = system: SN12C
[21] = system: A549
[22] = system: TK-10
[23] = system: EKVX
[24] = system: K562
[25] = system: LOX IMVI
[26] = system: HCC 2998
[27] = system: SNB-75
[28] = system: RPMI-8226
[29] = system: COLO 205
[30] = system: MDA-N
[31] = system: UACC-62
[32] = system: MCF7
[33] = system: RXF 393
[34] = system: SF-268
[35] = system: PC-3
[36] = system: HL-60
[37] = system: OVCAR-8
[38] = system: Malme-3M
[39] = system: SK-MEL-5
[40] = system: NCI-H23
[41] = system: HCT-116
[42] = system: HOP-92
[43] = system: NCI-H522
[44] = system: ACHN
[45] = system: UO-31
[46] = system: Hs-578T
[47] = system: NCI/ADR-RES
[48] = system: A498
[49] = system: SNB-19
[50] = system: MDA-MB-435
[51] = system: OVCAR-5
[52] = system: SK-MEL-2
[53] = system: OVCAR-4
[54] = system: OVCAR-3
[55] = system: U-251
[56] = system: NCI-H226

Measured: GI50

C/C(=C\CCC1=CC(=O)OC1)CC[C@@H]1[C@H]2C(=O)CC(C)[C@@]3(C)CC[C@]1(C)[C@@]23C (stereo partly specified)
inactive: [1] > 10 µM | [2] > 10 µM | [3] > 10 µM | [4] > 10 µM | [5] > 10 µM | [7] > 10 µM | [8] > 10 µM | [9] > 10 µM | [10] > 10 µM | [11] > 10 µM | [12] > 10 µM | [13] > 10 µM | [14] > 10 µM | [15] > 10 µM | [16] > 10 µM | [17] > 10 µM | [18] > 10 µM | [19] > 10 µM | [20] > 10 µM | [21] > 10 µM | [22] > 10 µM | [23] > 10 µM | [24] > 10 µM | [25] > 10 µM | [26] > 10 µM | [27] > 10 µM | [28] > 10 µM | [29] > 10 µM | [30] > 10 µM | [31] > 10 µM | [32] > 10 µM | [33] > 10 µM | [34] > 10 µM | [35] > 10 µM | [36] > 10 µM | [37] > 10 µM | [38] > 10 µM | [39] > 10 µM | [40] > 10 µM
> 10 µM: [6]

CSC1=N/C(=C\c2cccs2)C(=O)N1CN1CCOCC1
38.1 µM: [6]
active: [36] 0.0465 µM
inactive: [1] 95.7 µM | [41] 31.3 µM | [2] 41.5 µM | [3] 57.7 µM | [4] 24.9 µM | [5] 34.1 µM | [7] 44.5 µM | [8] > 100 µM | [9] > 100 µM | [42] 4.82 µM | [10] 61.7 µM | [12] 17.4 µM | [43] 30.1 µM | [14] > 100 µM | [44] 37.2 µM | [15] 71.1 µM | [16] 27.3 µM | [45] 39.9 µM | [46] 51.6 µM | [17] 65.9 µM | [18] 55 µM | [47] 14.3 µM | [48] 64.9 µM | [49] 45.6 µM | [50] > 100 µM | [51] > 100 µM | [52] 52.4 µM | [20] 5.2 µM | [21] > 100 µM | [22] 86.7 µM | [53] 30.6 µM | [23] 40.6 µM | [54] > 100 µM | [24] 43.8 µM | [25] 33.1 µM | [55] 85.5 µM | [27] 37.5 µM | [28] 20 µM | [29] 45.5 µM | [30] 59 µM | [31] 42.4 µM | [32] 32.2 µM | [34] 42.3 µM | [35] 50.8 µM | [37] 28.8 µM | [38] 44.7 µM | [56] 31.1 µM | [39] 41.1 µM | [40] > 100 µM
